Measurements published in ChEMBL document CHEMBL1146846, “Discovery of protein-protein binding disruptors using multi-component condensations small molecules” (Bioorg Med Chem Lett, 2006).
Activity calls are given as the source filed them. The calls are words filed in the database; no cut-off is given here.

Experiments:
Neuropilin-1 = Neuropilin-1 (Homo sapiens, UniProt O14786); assay: Inhibition of VEGF165-NRP1 interaction by ELISA
PC-3 [1] = assay: Toxicity against PC3 cell line by LDH-release assay; type: cell-based; conditions: human
PC-3 [2] = assay: Inhibition of PC3 cell migration; type: functional, cell-based; conditions: Homo sapiens

Neuropilin-1, sequence (O14786 whole entry): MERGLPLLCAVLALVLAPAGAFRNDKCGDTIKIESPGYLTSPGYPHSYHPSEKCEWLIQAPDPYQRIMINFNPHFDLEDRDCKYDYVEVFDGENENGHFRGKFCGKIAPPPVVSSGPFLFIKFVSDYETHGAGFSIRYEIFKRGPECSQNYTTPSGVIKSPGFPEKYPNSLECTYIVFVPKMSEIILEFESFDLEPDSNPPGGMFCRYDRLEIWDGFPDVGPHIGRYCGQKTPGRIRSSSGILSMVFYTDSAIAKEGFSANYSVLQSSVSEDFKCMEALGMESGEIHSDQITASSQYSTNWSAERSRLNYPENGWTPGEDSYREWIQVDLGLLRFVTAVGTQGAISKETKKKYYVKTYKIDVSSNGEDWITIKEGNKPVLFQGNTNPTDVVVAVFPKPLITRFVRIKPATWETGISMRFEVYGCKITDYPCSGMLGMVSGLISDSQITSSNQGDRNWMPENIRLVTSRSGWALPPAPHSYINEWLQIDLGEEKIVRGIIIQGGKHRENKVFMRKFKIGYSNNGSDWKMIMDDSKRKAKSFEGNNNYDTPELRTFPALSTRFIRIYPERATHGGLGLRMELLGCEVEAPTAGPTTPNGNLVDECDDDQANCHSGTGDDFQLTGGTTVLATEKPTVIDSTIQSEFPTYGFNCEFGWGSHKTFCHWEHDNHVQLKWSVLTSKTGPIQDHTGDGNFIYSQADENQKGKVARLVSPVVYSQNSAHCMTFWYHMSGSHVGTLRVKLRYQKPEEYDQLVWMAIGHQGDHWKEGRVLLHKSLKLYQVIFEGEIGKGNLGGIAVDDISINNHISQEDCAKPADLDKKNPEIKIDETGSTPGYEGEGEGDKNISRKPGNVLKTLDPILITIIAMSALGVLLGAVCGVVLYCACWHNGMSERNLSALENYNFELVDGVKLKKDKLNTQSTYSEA

## N#Cc1c(-c2ccccc2)c(NCc2ccc(Cl)c(Cl)c2)n2c(Cl)cccc12
Neuropilin-1
  IC50: 13 µM

## N#Cc1c(-c2ccc(F)c3ccccc23)c(NCCc2ccccc2)n2c(Cl)cccc12
Neuropilin-1
  IC50: 4 µM

## COC(=O)CSc1cccc2c(C#N)c(-c3ccccc3)c(NC3CCCCC3)n12
Neuropilin-1
  Activity: inactive

## N#Cc1c(-c2ccccc2)c(N)n2c(Cl)cccc12
Neuropilin-1
  Activity: inactive

## N#Cc1c(-c2ccccc2)c(NCCc2ccccc2)n2c(Cl)cccc12
PC-3 [1]
  Activity: Non-toxic
PC-3 [2]
  IC50: 21 µM
Neuropilin-1
  IC50: 2 µM

## N#Cc1c(-c2ccnc3ccccc23)c(NCCc2ccccc2)n2c(Cl)cccc12
Neuropilin-1
  Activity: inactive

## N#Cc1c(-c2ccccc2)c(NC2CCCCC2)n2c(SCC(=O)O)cccc12
Neuropilin-1
  Activity: inactive

## N#Cc1c(-c2ccccc2)c(Nc2cccc(N)c2)n2c(Cl)cccc12
Neuropilin-1
  IC50: 80 µM

## COc1ccc(CNc2c(-c3ccccc3)c(C#N)c3cccc(Cl)n23)c(OC)c1
Neuropilin-1
  Activity: inactive

## N#Cc1c(-c2cccc(F)c2)c(NCCc2ccccc2)n2c(Cl)cccc12
PC-3 [1]
  Activity: Non-toxic
PC-3 [2]
  IC50: 8 µM
Neuropilin-1
  IC50: 2 µM

## N#Cc1c(-c2ccccn2)c(NCCc2ccccc2)n2c(Cl)cccc12
Neuropilin-1
  IC50: 2 µM

## COc1ccccc1-c1c(C#N)c2cccc(Cl)n2c1NCCc1ccccc1
Neuropilin-1
  IC50: 3 µM

## CC(C)(C)c1ccc(-c2c(C#N)c3cccc(Cl)n3c2NCCc2ccccc2)cc1
Neuropilin-1
  IC50: 14 µM

## N#Cc1c(-c2cccc(S)c2)c(NCCc2ccccc2)n2c(Cl)cccc12
Neuropilin-1
  IC50: 6 µM

## N#Cc1c(-c2ccc(Cl)cc2)c(NCCc2ccccc2)n2c(Cl)cccc12
Neuropilin-1
  IC50: 2 µM

## N#Cc1c(-c2ccccc2Cl)c(NCCc2ccccc2)n2c(Cl)cccc12
Neuropilin-1
  IC50: 3 µM

## CC(=O)Nc1c(-c2ccccc2)c(C#N)c2cccc(Cl)n12
Neuropilin-1
  Activity: inactive

## Cc1ccccc1-c1c(C#N)c2cccc(Cl)n2c1NCCc1ccccc1
Neuropilin-1
  IC50: 9 µM

## N#Cc1c(-c2ccc(F)cc2)c(NCCc2ccccc2)n2c(Cl)cccc12
Neuropilin-1
  IC50: 5 µM

## N#Cc1c(-c2ccccc2S)c(NCCc2ccccc2)n2c(Cl)cccc12
Neuropilin-1
  IC50: 10 µM

## N#Cc1c(-c2cccc(Cl)c2)c(NCCc2ccccc2)n2c(Cl)cccc12
Neuropilin-1
  IC50: 3 µM

## N#Cc1c(C2CCNCC2)c(NCCc2ccccc2)n2c(Cl)cccc12
Neuropilin-1
  IC50: 95 µM

## N#Cc1c(CCc2ccccc2)c(NCCc2ccccc2)n2c(Cl)cccc12
Neuropilin-1
  IC50: 2 µM

## CN(C)CCCOc1ccc(-c2c(C#N)c3cccc(Cl)n3c2NCCc2ccccc2)cc1
Neuropilin-1
  IC50: 10 µM

## CSc1ccc(-c2c(C#N)c3cccc(Cl)n3c2NCCc2ccccc2)cc1
Neuropilin-1
  IC50: 3 µM

## CN(C)CCNc1cccc2c(C#N)c(-c3ccccc3)c(NC3CCCCC3)n12
Neuropilin-1
  IC50: 42 µM

## N#Cc1c(-c2ccccc2)c(NCCc2ccccc2Cl)n2c(Cl)cccc12
PC-3 [1]
  Activity: Non-toxic
PC-3 [2]
  IC50: 23 µM
Neuropilin-1
  IC50: 3 µM

## N#Cc1c(-c2ccccc2)c(NC2CCCCC2)n2c(Cl)cccc12
PC-3 [1]
  Activity: Non-toxic
PC-3 [2]
  IC50: 72 µM
Neuropilin-1
  IC50: 29 µM

## N#Cc1c(-c2ccccc2F)c(NCCc2ccccc2)n2c(Cl)cccc12
Neuropilin-1
  IC50: 3 µM

## N#Cc1c(-c2ccccc2)c(NCC(=O)NCc2ccco2)n2c(Cl)cccc12
PC-3 [1]
  Activity: Non-toxic
PC-3 [2]
  IC50: 54 µM
Neuropilin-1
  IC50: 19 µM

## N#Cc1c(-c2ccccc2)c(NCCN)n2c(Cl)cccc12
Neuropilin-1
  IC50: 43 µM

## CN(C)CCCOc1cccc2c(C#N)c(-c3ccccc3)c(NC3CCCCC3)n12
Neuropilin-1
  IC50: 79 µM

## Cc1ccc(-c2c(C#N)c3cccc(Cl)n3c2NCCc2ccccc2)cc1
Neuropilin-1
  IC50: 5 µM

## N#Cc1c(-c2ccc(OC(F)(F)F)cc2)c(NCCc2ccccc2)n2c(Cl)cccc12
Neuropilin-1
  IC50: 13 µM

## CSc1cccc2c(C#N)c(-c3ccccc3)c(NC3CCCCC3)n12
Neuropilin-1
  Activity: inactive

## N#Cc1c(-c2ccccc2)c(NC(=O)c2ccccc2)n2c(Cl)cccc12
Neuropilin-1
  Activity: inactive

## N#Cc1c(-c2ccncc2)c(NCCc2ccccc2)n2c(Cl)cccc12
Neuropilin-1
  IC50: 6 µM

## N#Cc1c(C2CCCCC2)c(NCCc2ccccc2)n2c(Cl)cccc12
Neuropilin-1
  Activity: inactive

## COc1cccc(-c2c(C#N)c3cccc(Cl)n3c2NCCc2ccccc2)c1
Neuropilin-1
  IC50: 2 µM

## Cc1cnc(-c2c(C#N)c3cccc(Cl)n3c2NCCc2ccccc2)s1
Neuropilin-1
  IC50: 22 µM

## COCCNc1c(-c2ccccc2)c(C#N)c2cccc(Cl)n12
Neuropilin-1
  IC50: 9 µM

## Cc1ccc(C)c(-c2c(C#N)c3cccc(Cl)n3c2NCCc2ccccc2)c1
Neuropilin-1
  IC50: 6 µM

## N#Cc1c(CCO)c(NCCc2ccccc2)n2c(Cl)cccc12
Neuropilin-1
  IC50: 13 µM

## CN(C)c1ccc(Nc2c(-c3ccccc3)c(C#N)c3cccc(Cl)n23)cc1
Neuropilin-1
  IC50: 47 µM

## COc1ccc(-c2c(C#N)c3cccc(Cl)n3c2NCCc2ccccc2)cc1
Neuropilin-1
  IC50: 5 µM

## CN(CCNc1c(-c2ccccc2)c(C#N)c2cccc(Cl)n12)Cc1ccccc1
Neuropilin-1
  IC50: 4 µM

## N#Cc1c(-c2ccccc2)c(NC2CCCCC2)n2c(F)cccc12
Neuropilin-1
  Activity: inactive

## N#Cc1c(-c2cccnc2)c(NCCc2ccccc2)n2c(Cl)cccc12
Neuropilin-1
  IC50: 4 µM

## CN(C)CCCNc1c(-c2ccccc2)c(C#N)c2cccc(Cl)n12
Neuropilin-1
  IC50: 62 µM

## Cc1cccc(C)c1Nc1c(-c2ccccc2)c(C#N)c2cccc(Cl)n12
Neuropilin-1
  IC50: 60 µM

## N#Cc1c(-c2ccccc2)c(NCCc2ccc(Cl)cc2)n2c(Cl)cccc12
Neuropilin-1
  IC50: 4 µM

## CCN(CC)CCNc1c(-c2ccccc2)c(C#N)c2cccc(Cl)n12
Neuropilin-1
  Activity: inactive
